# From patent publication US20240226357A1, “Sanitization Method for Affinity Chromatography Matrices” (priority 2015, published 2024)
# Where two headings read alike, the source gives them in different places.
# Legend:
# [1] = test system: Pseudomonas aeruginosa (vegetative bacteria); experiment: Disinfectant challenge test in Capto L 50% slurry, viable count of vegetative bacteria; format: cell-based; conditions: mean of duplicates
# Experimental: (§1) The purpose of this investigation was to evaluate the bactericidal and sporicidal effect on • bacterial spores and bacteria of eight disinfectants as well as PBS as reference added to • Capto L 50% slurry. The effect was tested with contact times of 0 and 15 minutes as well as • 1, 4, and 24 hours.
# (§2) The test was performed in slurries of Capto L 50% and disinfectants. Microorganisms were • added at a concentration of approximately 10^7 cfu/mL to the suspension and the reducing effect was evaluated after given time intervals by neutralizing the disinfectant. […] The results were evaluated with regard to log10 reductions of the microorganisms Bacillus subtilis (spores) and Pseudomonas aeruginosa (vegetative bacteria).
# (§3) 10^7 cfu/mL of the microorganism was added to 10 mL of Capto L 50% slurry with disinfectant. Samples were mixed and duplicate samples of 0.1 mL were added to 50 mL of neutralizing agent (0.075 M phosphate buffer with 0.3% lecithin, 3.0% Tween 80, 0.5% sodium thiosulfate and 0.1% L-histidine). The total solution was analyzed by filtrating fractions corresponding to 10-times serial dilutions. Filters were rinsed three times with 100 mL of 0.9% NaCl. As positive control each microorganism was added to 50 mL of neutralizing agent, the same amount added as for the disinfectant challenge tests. The total solution was analyzed by filtrating fractions corresponding to 10-times serial dilutions. Filters were rinsed three times with 100 mL of 0.9% NaCl. Filters were incubated on TSA (Trypticase Soy Agar) at 30-35° C. for 2-5 days. Preliminary reading was performed after 1-3 days. The reduction of microorganisms was calculated as the log10 of the surviving microorganisms as compared to that of the positive control.
# Fab = conditions: Capto L, compared to PBS control
# Experimental: A PreDictor™ (GE Healthcare) 96-well filter plate with 6 microliters Capto L in each well was subjected to the following procedure: • Removal of PreDictor storage solution (20% Ethanol) • Wash: 3×200 μl 20 mM phosphate, 150 mM NaCl pH 7.4 • Wash 3×200 μl MilliQ • Addition of 600 μl SIP solutions and 20 mM phosphate, 150 mM NaCl pH 7.4 (control) (48 solutions and duplicates in plate) • Sealing of bottom and top of the plates with Parafilm • Incubation in SIP solutions for 4 or 24 hours with shaking at 450 rpm • Liquids were removed by centrifugation (500×g, 1 min).
# The static binding capacity (SBC) of a Fab was determined by: • 1. Removal of SIP solutions • 2. Wash: 1x600 μl MilliQ, 1x600 μl PBS • 3. Equilibration: 3x200 μl 20 mM phosphate, 150 mM NaCl pH 7.4 • 4. Sample loading: 200 μl Fab at a concentration of 2.5 mg/mL, incubation 10 min and 90 min at 1100 rpm • 5. Collection of unbound sample in UV-readable plates and measurement of UV absorbance at 280 (and 254 nm)
# Liquids were removed by centrifugation (500×g, 1 min).
# The UV absorbance of the PBS buffer at 280 nm (path check on) was subtracted from the UV absorbance of the flow through fraction (A280-blank280)
# The concentration in the flow through fraction was calculated using a standard curve (A280-blank280)/1.2796
# [formula] • Vsample=200μl • Vmedium=6 μl • Vr=6+0.6*Vmedium=9.6 • Vr: The retained volume i.e. filter volume (6 μl) and liquid volume in resin (0.6*6)
# [2] = test system: Bacillus subtilis (spores); experiment: Disinfectant challenge test in Capto L 50% slurry, viable count of spores; format: cell-based; conditions: for Log10 reduction of Bacillus subtilis spores: mean of duplicates
# Experimental: as §1, §2, §3
# [3] = test system: monoclonal antibody immobilized on a Biacore chip; experiment: Biacore (SPR) binding kinetics of ligands before and after incubation in 0.1 M peracetic acid; conditions: ligand incubated for 0 to 24 h in 0.1 M PAA
# Experimental: The kinetics was measured by Surface Plasmon Resonance on a Biacore™ instrument. […] Reference sample (0 h) was withdrawn, 100 μl and buffer exchanged to 50 mM Ammonium Bicarbonate. • 4. 10% 1 M PAA was added and the incubations started. • 5. Samples were withdrawn after 1, 2, 4, 8, 16 and 24 h, 100 μl and buffer exchanged to 50 mM Ammonium Bicarbonate to stop the oxidation reaction. • 6. The concentrations were measured in all samples by measuring the UV absorbance at 276 nm. • 7. The samples were then analyzed on LC-MS and Biacore.
# [4] = 4 h incubation in SIP solution, 90' incubation with Fab sample
# [5] = 24 h incubation in SIP solution, 10' incubation with Fab sample
compound,measurement,setting,value
"CC(=O)OO [0.1M Peracetic acid, peracetic acid]",Log10 reduction of Pseudomonas aeruginosa,[1]; contact time 0 min,>6.9 log10
same,Log10 reduction of Pseudomonas aeruginosa,[1]; contact time 15 min,>6.9 log10
same,Log10 reduction of Pseudomonas aeruginosa,[1]; contact time 1 hour,>6.9 log10
same,Log10 reduction of Pseudomonas aeruginosa,[1]; contact time 4 hours,>6.9 log10
same,Log10 reduction of Pseudomonas aeruginosa,[1]; contact time 24 hours,>6.9 log10
same,Relative remaining SBC (%),"Fab; 4 h incubation in SIP solution, 10' incubation with Fab sample, listed as 100 mM Peracetic acid",109%
same,Relative remaining SBC (%),"Fab; 4 h incubation in SIP solution, 90' incubation with Fab sample, listed as 100 mM Peracetic acid",101%
same,Relative remaining SBC (%),"Fab; 24 h incubation in SIP solution, 10' incubation with Fab sample, listed as 100 mM Peracetic acid",107%
same,Killing of B. subtilis spores (in words),[2]; among the tested disinfectants,capable of efficiently killing B. subtilis spores
same,Log10 reduction of Bacillus subtilis spores,[2]; contact time 0 min,5.6 log10
same,Log10 reduction of Bacillus subtilis spores,[2]; contact time 15 min,>6.9 log10
same,Log10 reduction of Bacillus subtilis spores,[2]; contact time 1 hour,>6.9 log10
same,Log10 reduction of Bacillus subtilis spores,[2]; contact time 4 hours,>6.9 log10
same,Log10 reduction of Bacillus subtilis spores,[2]; contact time 24 hours,>6.9 log10
"N=C(NCCCCCCNC(=N)NC(=N)Nc1ccc(Cl)cc1)NC(=N)Nc1ccc(Cl)cc1.O=C(O)[C@H](O)[C@@H](O)[C@H](O)[C@H](O)CO.O=C(O)[C@H](O)[C@@H](O)[C@H](O)[C@H](O)CO [2% Chlorhexidine digluconale, Chlorhexidine digluconale]",Log10 reduction of Pseudomonas aeruginosa,[1]; contact time 0 min,>6.9 log10
same,Log10 reduction of Pseudomonas aeruginosa,[1]; contact time 15 min,>6.9 log10
same,Log10 reduction of Pseudomonas aeruginosa,[1]; contact time 1 hour,>6.9 log10
same,Log10 reduction of Pseudomonas aeruginosa,[1]; contact time 4 hours,>6.9 log10
same,Log10 reduction of Pseudomonas aeruginosa,[1]; contact time 24 hours,>6.9 log10
same,Log10 reduction of Bacillus subtilis spores,[2]; contact time 0 min,1.3 log10
same,Log10 reduction of Bacillus subtilis spores,[2]; contact time 15 min,1.2 log10
same,Log10 reduction of Bacillus subtilis spores,[2]; contact time 1 hour,0.7 log10
same,Log10 reduction of Bacillus subtilis spores,[2]; contact time 4 hours,1.6 log10
same,Log10 reduction of Bacillus subtilis spores,[2]; contact time 24 hours,0.2 log10
"OO [5% H2O2, hydrogen peroxide]",Relative remaining SBC (%),Fab; [4],102%
same,Relative remaining SBC (%),Fab; [5],102%
"CC(=O)OO [500 mM Peracetic acid, Peracetic acid]",Relative remaining SBC (%),Fab; [4],103%
same,Relative remaining SBC (%),Fab; [5],97%
same,Relative remaining SBC (%),"Fab; 24 h incubation in SIP solution, 90' incubation with Fab sample",102%
rPrA: recombinant Protein A,Affinity before and after SIP,[3],some loss in affinity with increasing SIP treatment
